Test results taken from patent US20160287558A1, “ORAL PHARMACEUTICAL FORM FOR PREVENTING VASCULAR DISEASES, TABLET AS PHARMACEUTICAL FORM AND GELATIN CAPSULE AS PHARMACEUTICAL FORM” (HYPERMARCAS S.A., priority 2013, published 2016).

Assays:
[1] = Description: The dissolution curves represent the expression of the release mechanism of active principles within the pharmaceutical form. Thus, it is possible to modulate the release to protect the active pharmaceutical principle, besides of improving the solubilization conditions. Excipients are used to optimize the behavior of the active pharmaceutical principle.
[2] = tested on: carbonic anhydrase; conditions: cited from earlier work
[3] = ALLHAT study; cited from earlier work

SMILES	solubility in water [1]	inhibition of carbonic anhydrase [2]	efficacy and prevention of cardiovascular complications compared with other drugs [3]
CCCCc1nc(Cl)c(CO)n1Cc1ccc(-c2ccccc2-c2nn[nH]n2)cc1 [losartan]	freely soluble		
NS(=O)(=O)c1cc2c(cc1Cl)NCNS2(=O)=O [hydrochlorothiazide]		very weak inhibitors	as effective as other drugs and further prevents more cardiovascular complications than other drugs
